{"source": "patent US20260177565A1", "about": "“INHIBITOR FOR GLUCOSE UPTAKE INTO RED BLOOD CELLS, SUPPRESSANT FOR GLUCOSE CONCENTRATION REDUCTION IN BLOOD-COLLECTING TUBE, AND BLOOD-COLLECTING TUBE INCLUDING SAME” (THE UNIVERSITY OF TOKYO, priority 2022, published 2026)", "system": "red blood cells", "experiment": "Fluorescently labeled glucose uptake into red blood cells (Glucose Uptake Assay Kit-Green)", "assay_type": "cell-based, human", "settings": "for uptake of fluorescently labeled glucose / fluorescence in red blood cells (in words): concentrations as in Table 5; for Fluorescence intensity of fluorescently labeled glucose uptake into red blood cells: control (PBS(−)) 613.5", "protocol": "Blood collected in the blood collection tube B from a volunteer subject was centrifuged at 3000 rpm for 5 minutes within 10 minutes, and plasma was discarded to obtain fresh red blood cells. The red blood cells were washed with PBS(−) and used for the following tests (washed red blood cells).\nThe test substance was dissolved in the amount described in Table 5 with respect to 1 mL of PBS(−). On the other hand, 5 μL of washed red blood cells immersed in PBS(−) and allowed to stand for about 15 minutes were taken out into a test tube, 150 μL each of a test substance solution was added thereto, and this was heated at 37° C. for 15 minutes. Then, 2 μL of a dissolved probe reagent in a glucose uptake assay kit (Glucose Uptake Assay Kit-Green, Dojindo Laboratories Co., Ltd.) was added and heated at 37° C. for 45 minutes. The probe reagent was fluorescently labeled glucose (fluorescently labeled glucose), and a powdered reagent dissolved in 20 μL of DMSO was used.\nAfter the immersion in the reagents of the glucose uptake assay was completed, red blood cells were washed 3 times with 150 μL of a cooled 50-fold diluted WI solution (prepared by diluting the solution provided with the assay reagent 50-fold with PBS(−) at 4° C.), and 150 μL of a cooled 50-fold diluted WI solution was further added and stirred, and then 20 μL of the solution was dropped onto a glass slide and spread over the slide. Slides were photographed with fluorescence microscope.\nThe remaining red blood cells were centrifuged to discard the supernatant, and 125 μL of water for injection was added to the remaining lower red blood cells to cause hemolysis. The fluorescence intensity of 100 μL of the supernatant obtained by centrifugation was measured using a microplate reader (MTP-800Lab, Corona Electric Co., Ltd.). The measurement conditions were an excitation light wavelength of […] and a measurement fluorescence wavelength of […].", "note": "Entries after “also recorded” stand apart in the source; their conditions may differ.", "data": [{"smiles": "[F-].[Na+]", "note": "[Sodium fluoride, sodium fluoride]", "values": [{"measurement": "uptake of fluorescently labeled glucose / fluorescence in red blood cells (in words)", "result": "the degree of suppression of uptake was much lower than that of inosine"}, {"measurement": "Fluorescence intensity of fluorescently labeled glucose uptake into red blood cells", "setting": "test substance 1.5 mg/mL in PBS(−)", "result": 255.1}]}, {"smiles": "OC[C@H]1O[C@@H](n2cnc3c(O)ncnc32)[C@H](O)[C@@H]1O", "note": "[Inosine, inosine]", "values": [{"measurement": "uptake of fluorescently labeled glucose / fluorescence in red blood cells (in words)", "result": "fluorescence in red blood cells was hardly observed; also recorded: strong inhibitory effect on the uptake of glucose in red blood cells"}, {"measurement": "Fluorescence intensity of fluorescently labeled glucose uptake into red blood cells", "setting": "test substance 2 mg/mL in PBS(−)", "result": 6.4}]}, {"smiles": "Nc1ncnc2c1ncn2[C@@H]1O[C@H](COP(=O)(O)OP(=O)(O)OP(=O)(O)O)[C@@H](O)[C@H]1O", "note": "[ATP, adenosine triphosphate]", "values": [{"measurement": "uptake of fluorescently labeled glucose / fluorescence in red blood cells (in words)", "result": "the degree of suppression of uptake was much lower than that of inosine"}, {"measurement": "Fluorescence intensity of fluorescently labeled glucose uptake into red blood cells", "setting": "test substance 1.25 mg/mL in PBS(−)", "result": 163.3}]}]}
